Data from patent US7491825B2, “Basic non-peptide bradykinin antagonists and pharmaceutical compositions therefrom” (Menarini Ricerche S.p.A., priority 2002, dated 2009).
Structures can show the parent of a compound that is named as a salt.

Biological target: T1, human B2 receptor (Homo sapiens, UniProt P30411)
T1 construct: human B2 receptor expressed in human fibroblasts W138; endogenous in cells; host or cells: human fibroblasts W138 (WI-38)
T1 sequence (P30411 1-391): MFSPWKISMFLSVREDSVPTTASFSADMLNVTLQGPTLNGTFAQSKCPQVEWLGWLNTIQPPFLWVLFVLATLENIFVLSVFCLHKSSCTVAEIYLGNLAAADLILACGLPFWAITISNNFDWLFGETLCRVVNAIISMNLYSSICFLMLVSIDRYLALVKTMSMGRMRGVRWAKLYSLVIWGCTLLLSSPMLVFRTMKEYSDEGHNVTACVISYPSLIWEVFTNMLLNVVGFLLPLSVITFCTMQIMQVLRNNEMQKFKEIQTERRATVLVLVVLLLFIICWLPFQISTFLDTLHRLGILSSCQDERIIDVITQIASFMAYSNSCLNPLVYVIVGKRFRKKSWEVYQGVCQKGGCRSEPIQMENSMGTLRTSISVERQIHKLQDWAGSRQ
Test: binding to the human B2 receptor expressed in human fibroblasts W138
Settings: not given
Text: In the following the binding values are reported expressed as pKi.

Compound	Ki [pM]
Cc1ccc2cccc(OCc3c(Cl)ccc(S(=O)(=O)NC(C)(C)C(=O)N4CCN(C(=O)[C@H](N)CCCNC(=N)N)CC4)c3Cl)c2n1 [Example 51, N-[2-[4-(2-(R)-Amino-5-guanidino-pentanoyl)-piperazin-1-yl]-1,1-dimethyl-2-oxo-ethyl]-2,4-dichloro-3-(2-methyl-quinolin-8-yloxymethyl)-benzenesulfonamide]	398
CCN=C(NCC)NCCC[C@H](N)C(=O)N1CCN(C(=O)C2(NS(=O)(=O)c3ccc(Cl)c(COc4cccc5c(C)cc(C)nc45)c3Cl)CCCC2)CC1 [Example 44]	79.4
Cc1cc(C)c2cccc(OCc3c(Cl)ccc(S(=O)(=O)NC4(C(=O)N5CCN(C(=O)[C@H](N)CCCCNC(=N)N)CC5)CCCC4)c3Cl)c2n1 [Example 64, N-[1-[4-(2-(R)-Amino-6-guanidino-hexanoyl)-piperazine-1-carbonyl]-cyclopentyl]-2,4-dichloro-3-(2,4-dimethyl-quinolin-8-yloxymethyl)-benzenesulfonamide tris trifluoroacetate]	631
Cc1ccc2cccc(OCc3c(Cl)ccc(S(=O)(=O)NC(C)(C)C(=O)N4CCN(C(=N)N)CC4)c3Cl)c2n1 [Example 20, 4-{2-[2,4-Dichloro-3-(2-methyl-quinolin-8-yloxymethyl)-benzenesulfonylamino]-2-methyl-propionyl}-piperazine-1-carboxamidine]	631
Cc1ccc2cccc(OCc3c(Cl)ccc(S(=O)(=O)NC(C)(C)C(=O)N4CCN(C(=N)NCCCN)CC4)c3Cl)c2n1 [Example 31, N-(3-Amino-propyl)-4-{2-[2,4-dichloro-3-(2-methyl-quinolin-8-yloxymethyl)-benzenesulfonylamino]-2-methyl-propionyl}-piperazine-1-carboxamidine tris trifluoroacetate]	398
Cc1cc(C)c2cccc(OCc3c(Cl)ccc(S(=O)(=O)NC4(C(=O)N5CCC(N6CCN(C(=O)[C@@H](N)CCCNC(=N)N)CC6)CC5)CCCC4)c3Cl)c2n1 [Example 38]	501

Same assay, conditions: human B2 receptor expressed in human fibroblasts W138

Compound	pKi
Cc1cc(C)c2cccc(OCc3c(Cl)ccc(S(=O)(=O)NC4(C(=O)N5CCN(C(=O)CCCCC[N+](C)(C)C)CC5)CCCC4)c3Cl)c2n1 [Example 91, N-{1-[4-(6-Trimethylammonium-hexanoyl)-piperazine-1-carbonyl]-cyclopentyl}-2,4-dichloro-3-(2,4-dimethyl-quinolin-8-yloxymethyl)-benzenesulfonamide bis trifluoroacetate]	9.3
Cc1cc(C)c2cccc(OCc3c(Cl)ccc(S(=O)(=O)N[C@H](C)C(C)C(=O)N4CCN(C(=O)C[C@H](CCCNC(=N)N)NC(=N)N)CC4)c3Cl)c2n1.O=C(O)C(F)(F)F.O=C(O)C(F)(F)F.O=C(O)C(F)(F)F (stereo partly shown) [Example 73]	9.2
N-[1-[4-(2-(S)-Trimethylammonium-6-trimethylammonium-hexanoyl)-piperazin-1-yl]-cyclopentyl]-2,4-dichloro-3-(2,4-dimethyl-quinolin-8-yloxymethyl)-benzenesulfonamide tris trifluoroacetate [Example 88]	9.7
Cc1cc(C)c2cccc(OCc3c(Cl)ccc(S(=O)(=O)NC(C)(C)C(=O)N4CCN(C(=O)[C@@H](N)CCCCN(C)C)CC4)c3Cl)c2n1 [Example 45, N-[2-[4-(2-(S)-Amino-6-dimethylamino-hexanoyl)-piperazin-1-yl]-1,1-dimethyl-2-oxo-ethyl]-2,4-dichloro-3-(2,4-dimethyl-quinolin-8-yloxymethyl)-benzenesulfonamide]	9.2
2,4-Dichloro-3-(2-methyl-quinolin-8-yloxymethyl)-benzenesulfinic acid (2-{4-[2-R-amino-5-(N′,N″-diethyl-guanidino)-pentanoyl]-piperazin-1-yl}-1,1-dimethyl-2-oxo-ethyl)-amide [Example 42]	9.4

Same assay, conditions: human B2 receptor expressed in human fibroblasts W138; read-out: pKi (converted)

Compound	Ki [pM]
CC[C@@](C)(NS(=O)(=O)c1ccc(Cl)c(COc2cccc3c(C)cc(C)nc23)c1Cl)C(=O)N1CCN(C(=O)[C@@H](N)CCCCN(C)C)CC1 [Example 61, (R)—N-[1-[4-(2-(S)-Amino-6-dimethylamino-hexanoyl)-piperazine-1-carbonyl]-1-methyl-propyl]-2,4-dichloro-3-(2,4-dimethyl-quinolin-8-yloxymethyl)-benzenesulfonamide tris trifluoroacetate]	501
Cc1cc(C)c2cccc(OCc3c(Cl)ccc(S(=O)(=O)NC4(C(=O)N5CCN(C(=O)C[N+](C)(C)C)CC5)CCCC4)c3Cl)c2n1 [Example 82, N-{1-[4-(2-Trimethylammonium-acetyl)-piperazine-1-carbonyl]-cyclopentyl}-2,4-dichloro-3-(2,4-dimethyl-quinolin-8-yloxymethyl)-benzenesulfonamide bis trifluoroacetate]	631
CNCCCCCNCC1CCN(C(=O)C2(NS(=O)(=O)c3ccc(Cl)c(COc4cccc5c(C)cc(C)nc45)c3Cl)CCCC2)CC1 [Example 106, 2,4-Dichloro-3-(2,4-dimethyl-quinolin-8-yloxymethyl)-N-(1-{4-[(5-methylamino-pentylamino)-methyl]-piperidine-1-carbonyl}-cyclopentyl)-benzenesulfonamide tris trifluoroacetate]	398
Cc1cc(C)c2cccc(OCc3c(Cl)ccc(S(=O)(=O)NC4(C(=O)N5CCN(C(=N)NCCNCCCN)CC5)CCCC4)c3Cl)c2n1 [Example 96, N-[2-(3-Amino-propylamino)-ethyl]-4-{1-[2,4-dichloro-3-(2,4-dimethyl-quinolin-8-yloxymethyl)-benzenesulfonylamino]-cyclopentanecarbonyl}-piperazine-1-carboxamidine bis trifluoroacetate]	794
CC[C@@](C)(NS(=O)(=O)c1ccc(Cl)c(COc2cccc3c(C)cc(C)nc23)c1Cl)C(=O)N1CCN(C(=O)C[C@@H](N)CCCN)CC1 [Example 72, (R)—N-[4-(3-(S)-Amino-6-amino-hexanoyl)-piperazine-1-carbonyl]-1-methyl-propyl]-2,4-dichloro-3-(2,4-dimethyl-quinolin-8-yloxymethyl)-benzenesulfonamide tris trifluoroacetate]	398
Cc1cc(C)c2cccc(OCc3c(Cl)ccc(S(=O)(=O)NC4(C(=O)N5CCN(C(=O)CCCCCNC(=N)N)CC5)CCCC4)c3Cl)c2n1 [Example 67, N-[1-[4-(6-Guanidino-hexanoyl)-piperazine-1-carbonyl]-cyclopentyl]-2,4-dichloro-3-(2,4-dimethyl-quinolin-8-yloxymethyl)-benzenesulfonamide bis trifluoroacetate]	794
Cc1cc(C)c2cccc(OCc3c(Cl)ccc(S(=O)(=O)NC4(C(=O)N5CCN(C[C@H](N)CCCCN)CC5)CCCC4)c3Cl)c2n1 [Example 98, 2,4-Dichloro-N-{1-[4-(2(R),6-diamino-hexyl)-piperazine-1-carbonyl]-cyclopentyl}-3-(2,4-dimethyl-quinolin-8-yloxymethyl)-benzenesulfonamide tetra trifluoroacetate]	631
CC[C@@](C)(NS(=O)(=O)c1ccc(Cl)c(COc2cccc3c(C)cc(C)nc23)c1Cl)C(=O)N1CCN(C(=O)C[C@@H](N)CCCN(C)C)CC1 [Example 74, (R)—N-[4-(3-(S)-Amino-6-dimethylamino-hexanoyl)-piperazine-1-carbonyl]-1-methyl-propyl]-2,4-dichloro-3-(2,4-dimethyl-quinolin-8-yloxymethyl)-benzenesulfonamide tris trifluoroacetate]	794
